This is an account of results in ChEMBL document CHEMBL1149860, “Synthesis and neuropharmacological characterization of 2-O-substituted apomorphines” (Bioorg Med Chem, 2008).

pEC50, pKi: −log10 of the molar value. Some results are limits rather than exact numbers.

The target of experiment [1] is D(2) dopamine receptor (Rattus norvegicus) (UniProt P61169). The experiment is described as follows: Agonist activity at rat dopamine D2(short) receptor expressed in CHOK1 cells by [35S]GTPgammaS binding assay relative to quinpirole. The experiment is classed as functional, cell-based. As to conditions: CHO-K1. For orientation: GTPγS is a poorly hydrolysed GTP analogue; its binding reports G protein activation.
Sequence of D(2) dopamine receptor (Rattus norvegicus) (P61169 whole entry): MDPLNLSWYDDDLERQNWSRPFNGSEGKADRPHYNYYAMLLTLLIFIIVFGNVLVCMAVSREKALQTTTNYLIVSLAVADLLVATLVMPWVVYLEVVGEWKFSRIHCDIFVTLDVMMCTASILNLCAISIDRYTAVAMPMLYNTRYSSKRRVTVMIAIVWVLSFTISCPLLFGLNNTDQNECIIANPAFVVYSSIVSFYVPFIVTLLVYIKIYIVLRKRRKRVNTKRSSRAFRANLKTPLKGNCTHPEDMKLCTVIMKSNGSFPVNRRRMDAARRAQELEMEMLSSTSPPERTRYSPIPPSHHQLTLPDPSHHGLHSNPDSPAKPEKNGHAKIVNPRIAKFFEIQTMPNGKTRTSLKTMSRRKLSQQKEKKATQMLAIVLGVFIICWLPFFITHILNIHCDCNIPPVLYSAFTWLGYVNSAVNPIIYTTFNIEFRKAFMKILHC

The target of a further experiment is D(1A) dopamine receptor (Mus musculus, UniProt Q61616). The experiment can be described thus: Displacement of [3H]SCH23390 from dopamine D1 receptor in mouse Ltk- fibroblast cells. In kind it is cell-based.
Sequence of D(1A) dopamine receptor (Q61616 whole entry): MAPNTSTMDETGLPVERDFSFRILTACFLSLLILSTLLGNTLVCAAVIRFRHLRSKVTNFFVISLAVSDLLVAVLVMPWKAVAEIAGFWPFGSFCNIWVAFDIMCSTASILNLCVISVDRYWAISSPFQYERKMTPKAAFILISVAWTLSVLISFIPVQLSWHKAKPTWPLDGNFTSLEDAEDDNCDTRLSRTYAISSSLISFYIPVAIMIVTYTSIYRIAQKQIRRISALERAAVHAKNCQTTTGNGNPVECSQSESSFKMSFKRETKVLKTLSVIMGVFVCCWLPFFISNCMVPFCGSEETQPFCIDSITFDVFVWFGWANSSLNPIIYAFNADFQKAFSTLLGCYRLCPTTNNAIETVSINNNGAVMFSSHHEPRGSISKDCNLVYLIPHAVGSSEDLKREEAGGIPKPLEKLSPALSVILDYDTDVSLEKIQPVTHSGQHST
Experiment [2] deals with T1, D(2) dopamine receptor (Rattus norvegicus, UniProt P61169). The experiment can be described thus: Agonist activity at rat dopamine D2(short) receptor expressed in CHOK1 cells by [35S]GTPgammaS binding assay. The experiment is classed as functional, cell-based, CHO-K1.
T1 sequence (P61169 whole entry): as the sequence (P61169 whole entry) above
The target in experiment [3] is T1, D(2) dopamine receptor. The experiment can be described thus: Displacement of [3H]raclopride from rat dopamine D2(short) receptor expressed in CHOK1 cells. In kind it is cell-based, CHO-K1. For orientation: In a radioligand displacement assay an active substance lowers the binding of a labelled ligand.
Experiment [4] deals with T1, D(2) dopamine receptor. The experiment can be described thus: Displacement of [3H]raclopride from dopamine D2 receptor in rat striatal membrane. The experiment is classed as cell membranes, Striatum.
For experiment [5], the target named is D(2) dopamine receptor (Homo sapiens, UniProt P14416). The experiment is described as follows: biochemical.
Sequence of D(2) dopamine receptor (Homo sapiens, UniProt P14416) (P14416 whole entry): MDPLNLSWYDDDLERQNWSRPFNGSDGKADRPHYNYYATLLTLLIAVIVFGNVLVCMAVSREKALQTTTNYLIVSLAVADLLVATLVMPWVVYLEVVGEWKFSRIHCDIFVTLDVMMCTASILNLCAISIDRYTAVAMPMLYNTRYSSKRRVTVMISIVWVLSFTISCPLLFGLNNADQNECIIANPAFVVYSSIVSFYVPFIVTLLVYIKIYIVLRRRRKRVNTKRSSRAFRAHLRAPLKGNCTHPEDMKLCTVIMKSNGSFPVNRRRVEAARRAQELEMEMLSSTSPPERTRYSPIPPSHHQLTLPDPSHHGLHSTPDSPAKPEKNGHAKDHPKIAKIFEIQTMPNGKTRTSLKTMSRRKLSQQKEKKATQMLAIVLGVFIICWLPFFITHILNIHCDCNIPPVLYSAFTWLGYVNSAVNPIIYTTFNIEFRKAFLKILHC
Description: Displacement of [3H]raclopride from human cloned dopamine D2 receptor expressed in CHO cell membrane

Take `CN1CCc2cc(OCCOCCO)cc3c2[C@H]1Cc1ccc(O)c(O)c1-3`: the Efficacy in experiment [1] is 58%. Moreover, the results for the pKi on D(1A) dopamine receptor and on D(2) dopamine receptor [3] were 5.12 and 6.23, respectively. At D(2) dopamine receptor [2], the pEC50 (commonly the negative decadic logarithm of the EC50, by convention in mol/L) was 6.03.
Taken in the same sequence, the figures for `CN1CCc2cc(OCCOc3cc4c5c(c3)-c3c(ccc(O)c3O)C[C@H]5N(C)CC4)cc3c2[C@H]1Cc1ccc(O)c(O)c1-3` were 18%, 5.28, 6.46 and 6.51.
Turning to `CSc1cc2c3c(c1)-c1c(ccc(O)c1O)C[C@H]3N(C)CC2`, the pKi (usually the Ki on a negative log10 scale, so that one unit is a factor of ten) on D(2) dopamine receptor [4] was 7.26.
The same measure, in the same setting: under `CN1CCc2cc(F)cc3c2[C@H]1Cc1ccc(O)c(O)c1-3` stands 9.37.
As for `CN1CCc2cc(-c3ccc(O)cc3)cc3c2[C@H]1Cc1ccc(O)c(O)c1-3`, the pKi at D(2) dopamine receptor [5] was 8.42.
Regarding `CN1CCc2cc(N)cc3c2[C@H]1Cc1ccc(O)c(O)c1-3`, the pKi at D(2) dopamine receptor [4] is 7.70.
For `CCOc1cc2c3c(c1)-c1c(ccc(O)c1O)C[C@H]3N(C)CC2`, the Efficacy in experiment [1] stood at 70%. Further, the results for the pKi at D(1A) dopamine receptor and on D(2) dopamine receptor [3] were 5.54 and 7.36, respectively. Moreover, the pEC50 at D(2) dopamine receptor [2] was 7.26.
Consider `CN1CCc2cc(OCCOCCOc3cc4c5c(c3)-c3c(ccc(O)c3O)C[C@H]5N(C)CC4)cc3c2[C@H]1Cc1ccc(O)c(O)c1-3`, for which the pKi is below 5.00 on D(1A) dopamine receptor and 4.77 at D(2) dopamine receptor [3]. Further, the pEC50 on D(2) dopamine receptor [2] was below 5.00.
Regarding `CN1CCc2cc(OCCO)cc3c2[C@H]1Cc1ccc(O)c(O)c1-3`, the Efficacy in experiment [1] is 19%. The pKi is 5.28 on D(1A) dopamine receptor and 6.46 at D(2) dopamine receptor [3]. At D(2) dopamine receptor [2], this molecule had a pEC50 of 6.50.
Taken in the same sequence, the figures for `CCCCOc1cc2c3c(c1)-c1c(ccc(O)c1O)C[C@H]3N(C)CC2` were 57%, 5.68, 7.22 and 7.24.
With `CN1CCc2cc(-c3ccccc3)cc3c2[C@H]1Cc1ccc(O)c(O)c1-3`, on D(2) dopamine receptor [5], the pKi is 7.06.
On to `CCCOc1cc2c3c(c1)-c1c(ccc(O)c1O)C[C@H]3N(C)CC2`, for which the Efficacy in experiment [1] turned out to be 71%. Also, the pKi on D(1A) dopamine receptor is 5.46; at D(2) dopamine receptor [3], 7.12. The pEC50 at D(2) dopamine receptor [2] is 7.12.
Consider `COc1cc2c3c(c1)-c1c(ccc(O)c1O)CC3N(C)CC2` (stereo unspecified), for which, in experiment [1], the Efficacy worked out at 66%. Besides, the pKi was 5.59 on D(1A) dopamine receptor and 7.13 on D(2) dopamine receptor [3]. The molecule further showed a pEC50 at D(2) dopamine receptor [2] of 6.94.
